From patent US10765114B2, “4-amino-6-(pyridyl and 2-substitutedphenyl)-picolinates and 6-amino-2-(pyridyl and 2-substitutedphenyl)-pyrimidine-4-carboxylates and their use as herbicides” (Dow AgroSciences LLC, priority 2013, dated 2020)
Read-outs that look alike come from different tables or passages of the source.

Tests used:
[1] = test system: Key Grass and Sedge Weeds as well as Grass Crops; test: Post-Emergent Test II (Table 6); type: in vivo; conditions: post-emergence, 336 h, 14 days after application; for pest or weed control at 70 g/ha: 70 g ai/ha; for pest or weed control at 140 g/ha: 140 g ai/ha
Summary of the method: (§1)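 Visual injury ratings (0 = no injury, 100 = complete kill) were taken 14 days after treatment relative to untreated plants. Seedlings at the first or second true leaf stage received an overhead spray at 187 L/ha, and solvent-blank sprayed plants served as controls.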

[2] = test system: Key Broadleaf Weed and Crop Species; test: Post-Emergent Test II (Table 5); type: in vivo; conditions: post-emergence, 336 h; for pest or weed control at 70 g/ha: application rate 70 (kg ai/ha; footnote: g ai/ha); for pest or weed control at 140 g/ha: application rate 140 (kg ai/ha; footnote: g ai/ha)
Summary of the method: as §1

[3] = CYPSS, read-out: Visual Growth Reduction (%) 14 Days After Application CYPSS
[4] = DIGSA: crabgrass (Digitaria sanguinalis), read-out: Visual Growth Reduction (%) 14 Days After Application DIGSA
[5] = ECHSS, read-out: Visual Growth Reduction (%) 14 Days After Application ECHSS
[6] = ORYSS (crop), read-out: Visual Growth Reduction (%) 14 Days After Application ORYSS
[7] = SETFA: giant foxtail (Setaria faberi), read-out: Visual Growth Reduction (%) 14 Days After Application SETFA
[8] = SORVU: grain sorghum (Sorghum vulgare), read-out: Visual Growth Reduction (%) 14 Days After Application SORVU
[9] = TRZSS (crop), read-out: Visual Growth Reduction (%) 14 Days After Application TRZSS
[10] = ZEAMX: maize, corn (Zea mays), read-out: Visual Growth Reduction (%) 14 Days After Application ZEAMX
[11] = Abutilon theophrasti, ABUTH: velvetleaf (Abutilon theophrasti), read-out: Visual Growth Reduction (%) 14 Days After Application ABUTH
[12] = Amaranthus retroflexus, AMARE: redroot pigweed (Amaranthus retroflexus), read-out: Visual Growth Reduction (%) 14 Days After Application AMARE
[13] = Brassica napus, BRSSS: oilseed rape, canola (Brassica napus), read-out: Visual Growth Reduction (%) 14 Days After Application BRSSS
[14] = Chenopodium album, CHEAL: lambsquarters (Chenopodium album), read-out: Visual Growth Reduction (%) 14 Days After Application CHEAL
[15] = Euphorbia heterophylla, EPHHL: wild poinsettia (Euphorbia heterophylla), read-out: Visual Growth Reduction (%) 14 Days After Application EPHHL
[16] = Helianthus annuus, HELAN: sunflower (Helianthus annuus), read-out: Visual Growth Reduction (%) 14 Days After Application HELAN
[17] = Viola tricolor, VIOTR: wild pansy (Viola tricolor), read-out: Visual Growth Reduction (%) 14 Days After Application VIOTR

| Structure (SMILES) | pest or weed control at 70 g/ha [1, 3] [%] | pest or weed control at 140 g/ha [1, 3] [%] | pest or weed control at 70 g/ha [1, 4] [%] | pest or weed control at 140 g/ha [1, 4] [%] | pest or weed control at 70 g/ha [1, 5] [%] | pest or weed control at 70 g/ha [1, 6] [%] | pest or weed control at 140 g/ha [1, 6] [%] | pest or weed control at 70 g/ha [1, 7] [%] | pest or weed control at 140 g/ha [1, 7] [%] | pest or weed control at 70 g/ha [1, 8] [%] | pest or weed control at 140 g/ha [1, 8] [%] | pest or weed control at 70 g/ha [1, 9] [%] | pest or weed control at 140 g/ha [1, 9] [%] | pest or weed control at 70 g/ha [1, 10] [%] | pest or weed control at 140 g/ha [1, 10] [%] | pest or weed control at 70 g/ha [2, 11] [%] | pest or weed control at 140 g/ha [2, 11] [%] | pest or weed control at 70 g/ha [2, 12] [%] | pest or weed control at 140 g/ha [2, 12] [%] | pest or weed control at 70 g/ha [2, 13] [%] | other results |
| --- | --- | --- | --- | --- | --- | --- | --- | --- | --- | --- | --- | --- | --- | --- | --- | --- | --- | --- | --- | --- | --- |
| Cc1ccc(-c2nc(C(=O)O)c(Cl)c(N)c2F)cn1 [Compound 85] | 0 to 29 | 0 to 29 | 0 to 29 | 0 to 29 | 45 to 59 | 0 to 29 | 0 to 29 | 0 to 29 | 0 to 29 | 0 to 29 | 0 to 29 | 0 to 29 | 0 to 29 | 0 to 29 | 0 to 29 | 0 to 29 | 0 to 29 | 95 to 100 | 95 to 100 | 60 to 74 | pest or weed control at 140 g/ha [2, 13]: 75 to 84%; pest or weed control at 70 g/ha [2, 14]: 0 to 29%; pest or weed control at 140 g/ha [2, 14]: 45 to 59%; pest or weed control at 70 g/ha [2, 15]: 0 to 29%; pest or weed control at 140 g/ha [2, 15]: 0 to 29%; pest or weed control at 70 g/ha [2, 16]: 30 to 44%; pest or weed control at 140 g/ha [2, 16]: 45 to 59%; pest or weed control at 70 g/ha [2, 17]: 0 to 29%; pest or weed control at 140 g/ha [2, 17]: 0 to 29%; melting point: 186 to 187 °C |
| COC(=O)c1nc(-c2ccc(OC)nc2)c(F)c(N)c1Cl [Compound 62] | 0 to 29 | 30 to 44 | 75 to 84 | 60 to 74 | 95 to 100 | 0 to 29 | 0 to 29 | 60 to 74 | 85 to 94 | 60 to 74 | 75 to 84 | 45 to 59 | 45 to 59 | 95 to 100 | 95 to 100 | 95 to 100 | 95 to 100 | 95 to 100 | 95 to 100 | 60 to 74 | pest or weed control at 140 g/ha [1, 5]: 95 to 100%; pest or weed control at 140 g/ha [2, 13]: 60 to 74%; pest or weed control at 70 g/ha [2, 14]: 95 to 100%; pest or weed control at 140 g/ha [2, 14]: 95 to 100%; pest or weed control at 70 g/ha [2, 15]: 95 to 100%; pest or weed control at 140 g/ha [2, 15]: 95 to 100%; pest or weed control at 70 g/ha [2, 16]: 95 to 100%; pest or weed control at 140 g/ha [2, 16]: 95 to 100%; pest or weed control at 70 g/ha [2, 17]: 0 to 29%; pest or weed control at 140 g/ha [2, 17]: 0 to 29%; melting point: 168 to 169 °C |
| COC(=O)c1nc(-c2ccc(Cl)nc2Cl)cc(N)c1Cl [Compound 15, methyl 4-amino-2′,5,6′-trichloro-[2,3′-bipyridine]-6-carboxylate] | 0 to 29 | 0 to 29 | 0 to 29 | 0 to 29 | 0 to 29 | 0 to 29 | 0 to 29 | 0 to 29 | 0 to 29 | 0 to 29 | 0 to 29 | 0 to 29 | 0 to 29 | 0 to 29 | 0 to 29 | 75 to 84 | 85 to 94 | 95 to 100 | 95 to 100 | 60 to 74 | pest or weed control at 140 g/ha [1, 5]: 0 to 29%; pest or weed control at 140 g/ha [2, 13]: 75 to 84%; pest or weed control at 70 g/ha [2, 14]: 85 to 94%; pest or weed control at 140 g/ha [2, 14]: 85 to 94%; pest or weed control at 70 g/ha [2, 15]: 0 to 29%; pest or weed control at 140 g/ha [2, 15]: 0 to 29%; pest or weed control at 70 g/ha [2, 16]: 85 to 94%; pest or weed control at 140 g/ha [2, 16]: 95 to 100%; pest or weed control at 70 g/ha [2, 17]: 30 to 44%; pest or weed control at 140 g/ha [2, 17]: 30 to 44%; melting point: 231 °C |
